These results are taken from patent publication US20180235904A1, “CANNABIDIOL COMPOSITIONS INCLUDING MIXTURES AND USES THEREOF” (EARTH SCIENCE TECH, INC., priority 2014, published 2018).

The assay has as its system RAW264.7 macrophages. Put plainly: Stimulation of macrophages, TNFα production (ELISA). The format is cell-based, mouse. As to conditions: 24 h. The procedure: RAW264.7, a mouse macrophage-like cell line, was used. The cells were cultured in DMEM, supplemented with 10% fetal calf serum (FCS), in 5% CO2, 95% air, at 37° C. in an humidified incubator.
The stimulation of macrophages was assessed by TNFα production, using a mouse TNFα ELISA kit.
To study the effects of hemp oil on macrophages, cells were seeded in a 24-well plate (2×10^5 cell/well) in 1-ml medium in each well for 12 h, and then incubated with hemp oil solution of different CBD concentrations (0-10 μM) for 24 h. Cell supernatant was collected for ELISA analysis.
After the macrophages were incubated with hemp oil of different CBD concentrations (0, 1, 2.5, 5, 10 μM), the TNFα production by the cells was detected.
In general terms: An ELISA detects its analyte on a solid surface through an enzyme-linked reagent.

In the case of `C=C(C)[C@@H]1CCC(C)=C[C@H]1c1c(O)cc(CCCCC)cc1O` [CBD, Cannabidiol], where the note is “CBD concentration of 10 μM”, the TNFα production entry is listed as “induced TNFα production at a significantly higher level”. Further, the “impact on macrophages (TNFα production)” value (CBD concentration range of 0 to 5 μM) is on record as “not significant”.
